Assays:
Type in all cases: organism-based
[1] = tested on: Brassica oleracea var. capitata; assay: Phyototoxicity against Brassica oleracea var. capitata (cabbage) assessed as crop injury at 1600 g a.i./ha applied 1 to 2 days prior to transplantation measured on day 14 post-transplantation; details: in vivo, other
[2] = tested on: Brassica oleracea var. capitata; assay: Phyototoxicity against Brassica oleracea var. capitata (cabbage) assessed as crop injury at 800 g a.i./ha applied 1 to 2 days prior to transplantation measured on day 28 post-transplantation; details: in vivo, other
[3] = tested on: Brassica oleracea var. capitata; assay: Phyototoxicity against Brassica oleracea var. capitata (cabbage) assessed as crop injury at 800 g a.i./ha applied 1 to 2 days after transplantation measured on day 28 post-transplantation; details: in vivo, other
[4] = tested on: Brassica oleracea var. capitata; assay: Phyototoxicity against Brassica oleracea var. capitata (cabbage) assessed as crop injury at 1600 g a.i./ha applied 1 to 2 days after transplantation measured on day 28 post-transplantation; details: in vivo, other
[5] = tested on: Brassica oleracea var. capitata; assay: Phyototoxicity against Brassica oleracea var. capitata (cabbage) assessed as crop injury at 800 g a.i./ha applied 1 to 2 days after transplantation measured on day 14 post-transplantation; details: in vivo
[6] = tested on: Brassica oleracea var. capitata; assay: Phyototoxicity against Brassica oleracea var. capitata (cabbage) assessed as crop injury at 800 g a.i./ha applied 1 to 2 days prior to transplantation followed by incorporation into soil measured on day 7 post-transplantation; details: in vivo, other
[7] = tested on: Brassica oleracea var. capitata; assay: Phyototoxicity against Brassica oleracea var. capitata (cabbage) assessed as crop injury at 2400 g a.i./ha applied 1 to 2 days prior to transplantation measured on day 14 post-transplantation; details: in vivo, other
[8] = tested on: Brassica oleracea var. capitata; assay: Phyototoxicity against Brassica oleracea var. capitata (cabbage) assessed as crop injury at 2400 g a.i./ha applied 1 to 2 days prior to transplantation followed by incorporation into soil measured on day 28 post-transplantation; details: in vivo, other
[9] = tested on: Brassica oleracea var. capitata; assay: Phytotoxicity against Brassica oleracea var. capitata (cabbage) assessed as cabbage head weight at 800 g a.i/ha applied 1 to 2 days prior to transplantation followed by incorporation into soil (reference value: 2465 g); details: in vivo, other
[10] = tested on: Brassica oleracea var. capitata; assay: Phytotoxicity against Brassica oleracea var. capitata (cabbage) assessed as yield at 1600 g a.i./ha applied 1 to 2 days prior to transplantation followed by incorporation into soil (reference value: 25.9 tons/ha); details: in vivo, other
[11] = tested on: Brassica oleracea var. capitata; assay: Phyototoxicity against Brassica oleracea var. capitata (cabbage) assessed as crop injury at 1600 g a.i./ha applied 1 to 2 days after transplantation measured on day 7 post-transplantation; details: in vivo, other
[12] = tested on: Brassica oleracea var. capitata; assay: Phytotoxicity against Brassica oleracea var. capitata (cabbage) assessed as yield at 1600 g a.i./ha applied 1 to 2 days prior to transplantation (reference value: 25.9 tons/ha); details: in vivo, other
[13] = tested on: Brassica oleracea var. capitata; assay: Phytotoxicity against Brassica oleracea var. capitata (cabbage) assessed as decrease in number of marketable cabbage heads at 800 to 2400 g i.a./ha applied 1 to 2 days prior to transplantation relative to control; details: in vivo, other
[14] = tested on: Brassica oleracea var. capitata; assay: Phytotoxicity against Brassica oleracea var. capitata (cabbage) assessed as cabbage head weight at 1600 g a.i/ha applied 1 to 2 days prior to transplantation followed by incorporation into soil (reference value: 2465 g); details: in vivo, other
[15] = tested on: Brassica oleracea var. capitata; assay: Phyototoxicity against Brassica oleracea var. capitata (cabbage) assessed as crop injury at 800 g a.i./ha applied 1 to 2 days prior to transplantation followed by incorporation into soil measured on day 14 post-transplantation; details: in vivo, other
[16] = tested on: Brassica oleracea var. capitata; assay: Phytotoxicity against Brassica oleracea var. capitata (cabbage) assessed as cabbage head weight at 1600 g a.i/ha applied 1 to 2 days prior to transplantation (reference value: 2465 g); details: in vivo, other
[17] = tested on: Brassica oleracea var. capitata; assay: Phyototoxicity against Brassica oleracea var. capitata (cabbage) assessed as crop injury at 800 g a.i./ha applied 1 to 2 days prior to transplantation measured on day 7 post-transplantation; details: in vivo, other
[18] = tested on: Brassica oleracea var. capitata; assay: Phytotoxicity against Brassica oleracea var. capitata (cabbage) assessed as yield at 2400 g a.i./ha applied 1 to 2 days prior to transplantation followed by incorporation into soil (reference value: 25.9 tons/ha); details: in vivo, other
[19] = tested on: Brassica oleracea var. capitata; assay: Phytotoxicity against Brassica oleracea var. capitata (cabbage) assessed as cabbage head weight at 2400 g a.i/ha applied 1 to 2 days prior to transplantation (reference value: 2465 g); details: in vivo, other
[20] = tested on: Brassica oleracea var. capitata; assay: Phyototoxicity against Brassica oleracea var. capitata (cabbage) assessed as crop injury at 800 g a.i./ha applied 1 to 2 days after transplantation measured on day 7 post-transplantation; details: in vivo, other
[21] = tested on: Brassica oleracea var. capitata; assay: Phyototoxicity against Brassica oleracea var. capitata (cabbage) assessed as crop injury at 2400 g a.i./ha applied 1 to 2 days after transplantation measured on day 28 post-transplantation; details: in vivo, other
[22] = tested on: Brassica oleracea var. capitata; assay: Phytotoxicity against Brassica oleracea var. capitata (cabbage) assessed as yield at 2400 g a.i./ha applied 1 to 2 days after transplantation (reference value: 25.9 tons/ha); details: in vivo, other
[23] = tested on: Brassica oleracea var. capitata; assay: Phyototoxicity against Brassica oleracea var. capitata (cabbage) assessed as crop injury at 1600 g a.i./ha applied 1 to 2 days prior to transplantation followed by incorporation into soil measured on day 14 post-transplantation; details: in vivo, other
[24] = tested on: Brassica oleracea var. capitata; assay: Phyototoxicity against Brassica oleracea var. capitata (cabbage) assessed as crop injury at 2400 g a.i./ha applied 1 to 2 days after transplantation measured on day 7 post-transplantation; details: in vivo, other
[25] = tested on: Brassica oleracea var. capitata; assay: Phytotoxicity against Brassica oleracea var. capitata (cabbage) assessed as cabbage head weight at 2400 g a.i/ha applied 1 to 2 days prior to transplantation followed by incorporation into soil (reference value: 2465 g); details: in vivo, other
[26] = tested on: Brassica oleracea var. capitata; assay: Phytotoxicity against Brassica oleracea var. capitata (cabbage) assessed as cabbage head weight at 2400 g a.i/ha applied 1 to 2 days after transplantation (reference value: 2465 g); details: in vivo, other
[27] = tested on: Brassica oleracea var. capitata; assay: Phytotoxicity against Brassica oleracea var. capitata (cabbage) assessed as cabbage head weight at 800 g a.i/ha applied 1 to 2 days after transplantation (reference value: 2465 g); details: in vivo, other
[28] = tested on: Brassica oleracea var. capitata; assay: Phyototoxicity against Brassica oleracea var. capitata (cabbage) assessed as crop injury at 1600 g a.i./ha applied 1 to 2 days prior to transplantation measured on day 7 post-transplantation; details: in vivo, other
[29] = tested on: Brassica oleracea var. capitata; assay: Phytotoxicity against Brassica oleracea var. capitata (cabbage) assessed as decrease in number of marketable cabbage heads at 800 to 2400 g i.a./ha applied 1 to 2 days prior to transplantation followed by incorporation into soil relative to control; details: in vivo, other
[30] = tested on: Brassica oleracea var. capitata; assay: Phyototoxicity against Brassica oleracea var. capitata (cabbage) assessed as crop injury at 2400 g a.i./ha applied 1 to 2 days prior to transplantation followed by incorporation into soil measured on day 14 post-transplantation; details: in vivo, other
[31] = tested on: Brassica oleracea var. capitata; assay: Phytotoxicity against Brassica oleracea var. capitata (cabbage) assessed as yield at 1600 g a.i./ha applied 1 to 2 days after transplantation (reference value: 25.9 tons/ha); details: in vivo, other
[32] = tested on: Brassica oleracea var. capitata; assay: Phyototoxicity against Brassica oleracea var. capitata (cabbage) assessed as crop injury at 2400 g a.i./ha applied 1 to 2 days prior to transplantation measured on day 28 post-transplantation; details: in vivo, other
[33] = tested on: Brassica oleracea var. capitata; assay: Phytotoxicity against Brassica oleracea var. capitata (cabbage) assessed as yield at 800 g a.i./ha applied 1 to 2 days prior to transplantation (reference value: 25.9 tons/ha); details: in vivo, other
[34] = tested on: Brassica oleracea var. capitata; assay: Phyototoxicity against Brassica oleracea var. capitata (cabbage) assessed as crop injury at 800 g a.i./ha applied 1 to 2 days prior to transplantation measured on day 14 post-transplantation; details: in vivo, other
[35] = tested on: Brassica oleracea var. capitata; assay: Phyototoxicity against Brassica oleracea var. capitata (cabbage) assessed as crop injury at 1600 g a.i./ha applied 1 to 2 days after transplantation measured on day 14 post-transplantation; details: in vivo
[36] = tested on: Brassica oleracea var. capitata; assay: Phytotoxicity against Brassica oleracea var. capitata (cabbage) assessed as cabbage head weight at 800 g a.i/ha applied 1 to 2 days prior to transplantation (reference value: 2465 g); details: in vivo
[37] = tested on: Brassica oleracea var. capitata; assay: Phyototoxicity against Brassica oleracea var. capitata (cabbage) assessed as crop injury at 1600 g a.i./ha applied 1 to 2 days prior to transplantation measured on day 28 post-transplantation; details: in vivo, other
[38] = tested on: Brassica oleracea var. capitata; assay: Phyototoxicity against Brassica oleracea var. capitata (cabbage) assessed as crop injury at 1600 g a.i./ha applied 1 to 2 days prior to transplantation followed by incorporation into soil measured on day 7 post-transplantation; details: in vivo, other
[39] = tested on: Brassica oleracea var. capitata; assay: Phyototoxicity against Brassica oleracea var. capitata (cabbage) assessed as crop injury at 2400 g a.i./ha applied 1 to 2 days prior to transplantation followed by incorporation into soil measured on day 7 post-transplantation; details: in vivo, other
[40] = tested on: Brassica oleracea var. capitata; assay: Phyototoxicity against Brassica oleracea var. capitata (cabbage) assessed as crop injury at 800 g a.i./ha applied 1 to 2 days prior to transplantation followed by incorporation into soil measured on day 28 post-transplantation; details: in vivo, other
[41] = tested on: Brassica oleracea var. capitata; assay: Phyototoxicity against Brassica oleracea var. capitata (cabbage) assessed as crop injury at 2400 g a.i./ha applied 1 to 2 days after transplantation measured on day 14 post-transplantation; details: in vivo
[42] = tested on: Brassica oleracea var. capitata; assay: Phyototoxicity against Brassica oleracea var. capitata (cabbage) assessed as crop injury at 2400 g a.i./ha applied 1 to 2 days prior to transplantation measured on day 7 post-transplantation; details: in vivo, other
[43] = tested on: Brassica oleracea var. capitata; assay: Phytotoxicity against Brassica oleracea var. capitata (cabbage) assessed as cabbage head weight at 1600 g a.i/ha applied 1 to 2 days after transplantation (reference value: 2465 g); details: in vivo, other
[44] = tested on: Brassica oleracea var. capitata; assay: Phytotoxicity against Brassica oleracea var. capitata (cabbage) assessed as yield at 800 g a.i./ha applied 1 to 2 days prior to transplantation followed by incorporation into soil (reference value: 25.9 tons/ha); details: in vivo, other
[45] = tested on: Brassica oleracea var. capitata; assay: Phytotoxicity against Brassica oleracea var. capitata (cabbage) assessed as decrease in number of marketable cabbage heads at 800 to 2400 g i.a./ha applied 1 to 2 days after transplantation relative to control; details: in vivo
[46] = tested on: Brassica oleracea var. capitata; assay: Phytotoxicity against Brassica oleracea var. capitata (cabbage) assessed as yield at 800 g a.i./ha applied 1 to 2 days after transplantation (reference value: 25.9 tons/ha); details: in vivo, other
[47] = tested on: Brassica oleracea var. capitata; assay: Phyototoxicity against Brassica oleracea var. capitata (cabbage) assessed as crop injury at 1600 g a.i./ha applied 1 to 2 days prior to transplantation followed by incorporation into soil measured on day 28 post-transplantation; details: in vivo, other
[48] = tested on: Brassica oleracea var. capitata; assay: Phytotoxicity against Brassica oleracea var. capitata (cabbage) assessed as yield at 2400 g a.i./ha applied 1 to 2 days prior to transplantation (reference value: 25.9 tons/ha); details: in vivo, other

## CCc1cccc(C)c1N(C(=O)CCl)[C@@H](C)COC [S-METOLACHLOR]
[1]
  Activity: 1%
[2]
  Activity: 0%
[3]
  Activity: 0%
[4]
  Activity: 0%
[5]
  Activity: 1%
[6]
  Activity: 2%
[7]
  Activity: 0%
[8]
  Activity: 0%
[9]
  Activity: 2413 g
[10]
  Crop_yield: 23.4 tons/ha
[11]
  Activity: 2%
[12]
  Crop_yield: 27.1 tons/ha
[13]
  Activity: Non-toxic
[14]
  Activity: 2255 g
[15]
  Activity: 0%
[16]
  Activity: 2540 g
[17]
  Activity: 2%
[18]
  Crop_yield: 25.7 tons/ha
[19]
  Activity: 2460 g
[20]
  Activity: 3%
[21]
  Activity: 0%
[22]
  Crop_yield: 27.7 tons/ha
[23]
  Activity: 0%
[24]
  Activity: 0%
[25]
  Activity: 2421 g
[26]
  Activity: 2676 g
[27]
  Activity: 2310 g
[28]
  Activity: 2%
[29]
  Activity: Non-toxic
[30]
  Activity: 0%
[31]
  Crop_yield: 26.4 tons/ha
[32]
  Activity: 0%
[33]
  Crop_yield: 26.7 tons/ha
[34]
  Activity: 0%
[35]
  Activity: 0%
[36]
  Activity: 2386 g
[37]
  Activity: 0%
[38]
  Activity: 3%
[39]
  Activity: 1%
[40]
  Activity: 0%
[41]
  Activity: 0%
[42]
  Activity: 3%
[43]
  Activity: 2556 g
[44]
  Crop_yield: 26.4 tons/ha
[45]
  Activity: Non-toxic
[46]
  Crop_yield: 24.5 tons/ha
[47]
  Activity: 0%
[48]
  Crop_yield: 25.4 tons/ha
